Results from ChEMBL document CHEMBL1201862, “PubChem BioAssay data set” (2004).
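How tested: cells in 96-well plates exposed to compound for 48 hours at five concentrations. Abbreviation: GI50, concentration required for 50% inhibition of growth.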 Active and inactive are the calls of the source. Cut-off read from the data, not from the text of the source: active = GI50 up to about 1.1 µM and inactive = higher.

Key:
Experiment in all cases: inhibition of tumour cell growth, NCI panel, 48 h
[1] = tested on: SF-268
[2] = tested on: HCC 2998
[3] = tested on: HOP-62
[4] = tested on: SR
[5] = tested on: HT-29
[6] = tested on: UACC-62
[7] = tested on: ACHN
[8] = tested on: OVCAR-3
[9] = tested on: DU-145
[10] = tested on: SK-OV-3
[11] = tested on: HCT-116
[12] = tested on: M14
[13] = tested on: U-251
[14] = tested on: SNB-75
[15] = tested on: HCT-15
[16] = tested on: LOX IMVI
[17] = tested on: BT-549
[18] = tested on: SK-MEL-28
[19] = tested on: RXF 393
[20] = tested on: TK-10
[21] = tested on: OVCAR-5
[22] = tested on: K562
[23] = tested on: MDA-MB-435
[24] = tested on: SW-620
[25] = tested on: SF-295
[26] = tested on: COLO 205
[27] = tested on: SN12C
[28] = tested on: NCI-H23
[29] = tested on: RPMI-8226
[30] = tested on: OVCAR-4
[31] = tested on: SNB-19
[32] = tested on: UO-31
[33] = tested on: NCI-H226
[34] = tested on: EKVX
[35] = tested on: MDA-N
[36] = tested on: HOP-92
[37] = tested on: UACC-257
[38] = tested on: IGROV-1
[39] = tested on: CCRF-CEM
[40] = tested on: SF-539
[41] = tested on: MCF7
[42] = tested on: 786-0
[43] = tested on: SK-MEL-2
[44] = tested on: MOLT-4
[45] = tested on: OVCAR-8
[46] = tested on: A498
[47] = tested on: NCI/ADR-RES
[48] = tested on: KM12
[49] = tested on: NCI-H460
[50] = tested on: A549
[51] = tested on: CAKI-1
[52] = tested on: SK-MEL-5
[53] = tested on: PC-3
[54] = tested on: MDA-MB-231
[55] = tested on: T47D

With `O=C1C=Cc2c(Cl)sc(Cl)c21` the GI50 [1] was 1660 nM (inactive), the GI50 [2] was 5380 nM (inactive) and the GI50 [3] was 1740 nM (inactive). For the same compound, the GI50 [4] was 347 nM (active), the GI50 [5] was 1460 nM (inactive) and the GI50 [6] was 3010 nM (inactive). The GI50 [7] was 1710 nM (inactive), the GI50 [8] was 1850 nM (inactive) and the GI50 [9] was 2320 nM (inactive). For the same compound, the GI50 [10] was 15200 nM (inactive), the GI50 [11] was 752 nM (active) and the GI50 [12] was 1870 nM (inactive). The GI50 [13] was 2990 nM (inactive), the GI50 [14] was 3610 nM (inactive) and the GI50 [15] was 1510 nM. For the same compound, the GI50 [16] was 372 nM (active), the GI50 [17] was 3080 nM (inactive) and the GI50 [18] was 1730 nM (inactive). The GI50 [19] was 2090 nM (inactive), the GI50 [20] was 2240 nM (inactive) and the GI50 [21] was 4300 nM (inactive). For the same compound, the GI50 [22] was 767 nM (active), the GI50 [23] was 2020 nM (inactive) and the GI50 [24] was 845 nM (active). The GI50 [25] was 8590 nM (inactive), the GI50 [26] was 1450 nM (inactive) and the GI50 [27] was 2180 nM (inactive). The GI50 [28] was 2220 nM (inactive), the GI50 [29] was 675 nM (active) and the GI50 [30] was 6010 nM (inactive). The GI50 [31] was 4630 nM (inactive), the GI50 [32] was 1600 nM (inactive) and the GI50 [33] was 6400 nM (inactive). The GI50 [34] was 3270 nM (inactive), the GI50 [35] was 2530 nM (inactive) and the GI50 [36] was 1500 nM (inactive). The GI50 [37] was 2030 nM (inactive), the GI50 [38] was 1630 nM (inactive) and the GI50 [39] was 234 nM (active). For the same compound, the GI50 [40] was 1480 nM (inactive), the GI50 [41] was 1050 nM (active) and the GI50 [42] was 940 nM (active). The GI50 [43] was 2200 nM (inactive), the GI50 [44] was 120 nM (active) and the GI50 [45] was 1600 nM (inactive). For the same compound, the GI50 [46] was 4060 nM (inactive), the GI50 [47] was 2030 nM (inactive) and the GI50 [48] was 883 nM (active). For the same compound, the GI50 [49] was 9310 nM (inactive), the GI50 [50] was 4240 nM (inactive) and the GI50 [51] was 2150 nM (inactive). For the same compound, the GI50 [52] was 2110 nM (inactive), the GI50 [53] was 1880 nM (inactive) and the GI50 [54] was 2860 nM (inactive). For the same compound, the GI50 [55] was 1810 nM (inactive).
